How the values were obtained:
[1] = target: T1, human recombinant serotonin (5-Hydroxytryptamine) 5-HT6 receptor (Homo sapiens, UniProt P50406); experiment: Serotonin 5-HT6 radioligand binding ([3H]LSD); details: compound at 1 μM; read-out: Serotonin (1 μM) 5-HT6, percent inhibition of specific binding
T1 construct: expressed in transfected cells; host or cells: human HeLa cells
How it was run: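 Human recombinant 5-HT6 receptor from HeLa cells incubated with 1.5 nM [3H]LSD for 120 min at 37° C in 50 mM Tris-HCl pH 7.4, 150 mM NaCl, 2 mM ascorbic acid, 0.001% BSA. Nonspecific binding defined with 5 μM serotonin; bound ligand counted after filtration.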

[2] = target: T2, human recombinant dopamine D2L receptor (Homo sapiens, UniProt P14416); experiment: Dopamine D2L radioligand binding ([3H]Spiperone); details: compound at 1 μM; read-out: Dopamine (1 μM) D2L, percent inhibition of specific binding
T2 construct: expressed in transfected cells; host or cells: CHO cells
T2 sequence (P14416 whole entry): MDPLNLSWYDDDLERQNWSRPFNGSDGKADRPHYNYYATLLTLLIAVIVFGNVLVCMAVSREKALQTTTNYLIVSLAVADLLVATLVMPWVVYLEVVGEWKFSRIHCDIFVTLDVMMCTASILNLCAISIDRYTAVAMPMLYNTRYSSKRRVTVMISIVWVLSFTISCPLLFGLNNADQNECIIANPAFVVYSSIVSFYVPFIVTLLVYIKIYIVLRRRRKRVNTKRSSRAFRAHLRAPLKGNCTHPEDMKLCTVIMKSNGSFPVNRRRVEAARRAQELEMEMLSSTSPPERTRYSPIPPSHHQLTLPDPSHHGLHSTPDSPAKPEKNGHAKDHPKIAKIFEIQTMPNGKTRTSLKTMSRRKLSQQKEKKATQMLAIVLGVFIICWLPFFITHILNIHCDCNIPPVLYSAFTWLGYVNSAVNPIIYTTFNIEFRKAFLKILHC
How it was run: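 Human recombinant D2L receptor from CHO cells, in Tris-HCl buffer pH 7.4 with ascorbic acid, BSA and 150 mM NaCl; compounds at 1 μM or lower (1% DMSO) incubated with 0.16 nM [3H]spiperone, 120 min, 25° C. Nonspecific binding by 10 μM haloperidol; filter counting; % inhibition of specific binding.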

[3] = target: T3, human recombinant serotonin (5-Hydroxytryptamine) 5-HT2C receptor (Homo sapiens, UniProt P28335); experiment: Serotonin 5-HT2C radioligand binding ([3H]Mesulergine); details: compound at 1 μM; read-out: Serotonin (1 μM) 5-HT2C, percent inhibition of specific binding
T3 construct: expressed in transfected cells; host or cells: CHO-K1 cells
T3 sequence (P28335 33-458): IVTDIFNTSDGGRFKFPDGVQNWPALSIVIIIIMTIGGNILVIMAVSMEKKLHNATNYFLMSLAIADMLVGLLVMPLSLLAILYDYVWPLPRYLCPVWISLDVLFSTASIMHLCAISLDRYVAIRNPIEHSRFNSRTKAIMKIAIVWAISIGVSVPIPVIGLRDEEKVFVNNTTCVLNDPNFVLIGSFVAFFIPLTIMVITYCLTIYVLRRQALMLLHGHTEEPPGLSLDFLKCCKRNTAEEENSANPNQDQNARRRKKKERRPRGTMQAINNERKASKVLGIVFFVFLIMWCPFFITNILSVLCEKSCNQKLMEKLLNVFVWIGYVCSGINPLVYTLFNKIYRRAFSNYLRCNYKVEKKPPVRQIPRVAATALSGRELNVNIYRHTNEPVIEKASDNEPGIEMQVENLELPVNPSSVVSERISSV
How it was run: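 Membranes from CHO-K1 cells expressing human 5-HT2C, incubated with 1 nM [3H]mesulergine for 60 min at 25 °C in 50 mM Tris-HCl pH 7.4 with ascorbic acid and pargyline.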

[4] = target: T4, human recombinant adrenergic α2A receptor (Homo sapiens, UniProt P08913); experiment: Adrenergic alpha2A radioligand binding ([3H]MK-912); details: compound at 1 μM; read-out: Adrenergic (1 μM) α2A, percent inhibition of specific binding
T4 construct: expressed in transfected cells; host or cells: insect Sf9 cells
T4 sequence (P08913 1-465): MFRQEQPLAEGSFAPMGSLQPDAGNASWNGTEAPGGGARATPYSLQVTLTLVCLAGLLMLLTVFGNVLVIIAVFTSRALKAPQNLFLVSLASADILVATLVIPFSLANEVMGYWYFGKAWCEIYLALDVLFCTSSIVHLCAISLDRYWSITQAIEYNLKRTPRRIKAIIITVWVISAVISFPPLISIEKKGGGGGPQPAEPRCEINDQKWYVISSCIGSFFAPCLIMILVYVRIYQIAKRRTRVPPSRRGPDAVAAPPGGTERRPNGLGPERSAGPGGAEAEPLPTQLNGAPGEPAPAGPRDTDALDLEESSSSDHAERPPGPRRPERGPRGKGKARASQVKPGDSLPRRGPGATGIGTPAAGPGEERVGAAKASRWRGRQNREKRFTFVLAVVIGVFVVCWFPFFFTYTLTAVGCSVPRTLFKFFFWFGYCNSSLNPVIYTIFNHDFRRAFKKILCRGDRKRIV
Description: To evaluate in radioligand binding assays the activity of compounds of the invention, human recombinant adrenergic α2A receptor expressed in insect Sf9 cells (Uhlen S et al. J Pharmacol Exp Ther. 271:1558, 1994) in a modified Tris-HCl buffer (50 mM Tris-HCl, pH 7.4, 12.5 mM MgCl2, 2 mM EDTA) was used. Compounds of invention were incubated with 1 nM [^3H]MK-912 for 60 min. at 25° C. MK912 is (2S-trans)-1,3,4,5′,6,6′,7,12b-octahydro-1′,3′-dimethyl-spiro[2 h-benzofuro [2,3-a]quinolizine-2,4′ (1′H)-pyrimidin]-2′ (3′H)-one hydrochloride Non-specific binding was estimated in the presence of 10 μM WB-4101 (2-(2,6-Dimethoxyphenoxyethyl)aminomethyl-1,4-benzodioxane hydrochloride). Receptor proteins were filtered and washed, the filters were then counted to determine [^3H]MK-912 specifically bound. Compounds were screened at 1 μM or lower, using 1% DMSO as vehicle. Biochemical assay results are presented as the percent inhibition of specific binding in Table 5.

T1 sequence (P50406 whole entry): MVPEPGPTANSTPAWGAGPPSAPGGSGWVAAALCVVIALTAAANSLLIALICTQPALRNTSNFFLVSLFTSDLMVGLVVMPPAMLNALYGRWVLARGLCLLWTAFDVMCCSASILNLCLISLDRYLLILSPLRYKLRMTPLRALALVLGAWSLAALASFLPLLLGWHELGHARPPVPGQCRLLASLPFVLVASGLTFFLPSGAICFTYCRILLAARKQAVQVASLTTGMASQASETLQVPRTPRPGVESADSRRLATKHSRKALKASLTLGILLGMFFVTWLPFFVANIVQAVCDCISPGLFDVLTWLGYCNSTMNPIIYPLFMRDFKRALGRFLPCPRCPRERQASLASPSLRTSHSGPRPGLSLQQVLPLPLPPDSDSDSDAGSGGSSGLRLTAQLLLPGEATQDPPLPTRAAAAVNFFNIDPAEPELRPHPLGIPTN

Structure (SMILES) | inhibition at 1 µM [1] [%] | inhibition at 1 µM [2] [%] | inhibition at 1 µM [3] [%] | inhibition at 1 µM [4] [%]
CN1CCc2c(n(CC(O)c3ccncc3)c3ccc(Cl)cc23)CC1 (stereo not shown) [Compound No. 42, 2-(9-chloro-2,3,4,5-tetrahydro-3-methylazepino[4,5-b]indol-6(1H)-yl)-1-(pyridin-4-yl)ethanol] | 73 | 8 | 101 | 87
Cc1ccc2c(c1)c1c(n2CC(O)c2ccncc2)CCN(C)CC1 (stereo not shown) [Compound No. 43, 2-(2,3,4,5-tetrahydro-3,9-dimethylazepino[4,5-b]indol-6(1H)-yl)-1-(pyridin-4-yl)ethanol] | 48 | 4 | 91 | 78
Cc1ccc2c(c1)c1c(n2CC(=O)Nc2ccc(F)cc2)CCN(C)CC1 [Compound No. 44, N-(4-fluorophenyl)-2-(2,3,4,5-tetrahydro-3,9-dimethylazepino[4,5-b]indol-6(1H)-yl)acetamide] | 1 | -8 | 41 | 1
Cc1ccc2c(c1)c1c(n2CC(=O)N2CCCC2)CCN(C)CC1 [Compound No. 45, 2-(2,3,4,5-tetrahydro-3,9-dimethylazepino[4,5-b]indol-6(1H)-yl)-1-(pyrrolidin-1-yl)ethanone] | 2 | -6 | 16 | -9
Cc1ccc(CCn2c3c(c4cc(Cl)ccc42)CCN(C)CC3)cc1 [Compound No. 46, 9-chloro-3-methyl-6-(4-methylphenethyl)-1,2,3,4,5,6-hexahydroazepino[4,5-b]indole] | 98 | 79 | 98 | 100
COc1ccc(C(O)Cn2c3c(c4cc(Cl)ccc42)CCN(C)CC3)cc1 (stereo not shown) [Compound No. 47, 2-(9-chloro-2,3,4,5-tetrahydro-3-methylazepino[4,5-b]indol-6(1H)-yl)-1-(4-methoxyphenyl)ethanol] | 77 | 45 | 98 | 97
COc1ccc(C(O)Cn2c3c(c4cc(C)ccc42)CCN(C)CC3)cc1 (stereo not shown) [Compound No. 48, 2-(2,3,4,5-tetrahydro-3,9-dimethylazepino[4,5-b]indol-6(1H)-yl)-1-(4-methoxyphenyl) ethanol] | 73 | 31 | 98 | 98
COc1ccc(C(O)Cn2c3c(c4cc(Cl)ccc42)CCN(C)CC3)c(F)c1 (stereo not shown) [Compound No. 49, 2-(9-chloro-2,3,4,5-tetrahydro-3-methylazepino[4,5-b]indol-6(1H)-yl)-1-(2-fluoro-4-methoxyphenyl) ethanol] | 88 | 32 | 98 | 96
COc1ccc(C(O)Cn2c3c(c4cc(C)ccc42)CCN(C)CC3)c(F)c1 (stereo not shown) [Compound No. 50, 1-(2-fluoro-4-methoxyphenyl)-2-(2,3,4,5-tetrahydro-3,9-dimethylazepino[4,5-b]indol-6(1H)-yl)ethanol] | 88 | 34 | 95 | 94
CN1CCc2c(n(CC(O)c3ccc(F)cc3)c3ccc(Cl)cc23)CC1 (stereo not shown) [Compound No. 51, 2-(9-chloro-2,3,4,5-tetrahydro-3-methylazepino[4,5-b]indol-6(1H)-yl)-1-(4-fluorophenyl) ethanol] | 94 | 30 | 98 | 98
Cc1ccc2c(c1)c1c(n2CC(O)c2ccc(F)cc2)CCN(C)CC1 (stereo not shown) [Compound No. 52, 1-(4-fluorophenyl)-2-(2,3,4,5-tetrahydro-3,9-dimethylazepino[4,5-b]indol-6(1H)-yl)ethanol] | 84 | 20 | 96 | 97
CN1CCc2c(n(CC(=O)N3CCCC3)c3ccc(Cl)cc23)CC1 [Compound No. 53, 2-(9-chloro-2,3,4,5-tetrahydro-3-methylazepino[4,5-b]indol-6(1H)-yl)-1-(pyrrolidin-1-yl)ethanone] | -1 | 2 | 32 | 1
Cc1ccc2c(c1)c1c(n2CC(=O)NC(C)C)CCN(C)CC1 [Compound No. 54, 2-(2,3,4,5-tetrahydro-3,9-dimethylazepino[4,5-b]indol-6(1H)-yl)-N-isopropylacetamide] | -10 | 6 | -2 | 5
Cc1ccc2c(c1)c1c(n2CC(=O)OC2CCCC2)CCN(C)CC1 [Compound No. 55, Cyclopentyl-2-(2,3,4,5-tetrahydro-3,9-dimethylazepino[4,5-b]indol-6(1H)-yl)acetate] | 4 | 6 | 32 | 12
CN1CCc2c(n(CCc3ccccc3)c3ccc(Cl)cc23)CC1 [Compound No. 56, 9-chloro-1,2,3,4,5,6-hexahydro-3-methyl-6-phenethylazepino[4,5-b]indole] | 104 | 62 | 95 | 95
CN1CCc2c(n(CC(=O)N3CCCCC3)c3ccc(Cl)cc23)CC1 [Compound No. 57, 2-(9-chloro-2,3,4,5-tetrahydro-3-methylazepino[4,5-b]indol-6(1H)-yl)-1-(piperidin-1-yl)ethanone] | -1 | 10 | 65 | -1
CN1CCc2c(n(CC(O)c3ccc(F)c(F)c3)c3ccc(Cl)cc23)CC1 (stereo not shown) [Compound No. 58, 2-(9-chloro-2,3,4,5-tetrahydro-3-methylazepino[4,5-b]indol-6(1H)-yl)-1-(3,4-difluorophenyl)ethanol] | 99 | 47 | 16 | 95
Cc1ccc2c(c1)c1c(n2CC(O)c2ccc(F)cc2F)CCN(C)CC1 (stereo not shown) [Compound No. 59, 1-(2,4-difluorophenyl)-2-(2,3,4,5-tetrahydro-3,9-dimethylazepino[4,5-b]indol-6(1H)-yl)ethanol] | 97 | 20 | -3 | 89
CN1CCc2c(n(CC(=O)N3CCOCC3)c3ccc(Cl)cc23)CC1 [Compound No. 60, 2-(9-chloro-2,3,4,5-tetrahydro-3-methylazepino[4,5-b]indol-6(1H)-yl)-1-morpholinoethanone] | 3 | -9 | -5 | 7

Source: patent publication US9481676B2, “Azepino[4,5-B]indoles and methods of use” (Medivation Technologies, Inc., priority 2008, dated 2016)
